Test results reported in the NIST ThermoML archive (doi:10.1021/je400402n).
Numbers after ± are expanded uncertainties.

Conditions: 101 kPa, Liquid, HP 4194A impedance-gain phase analyzer

C[S+](C)[O-] [dimethyl sulfoxide]
Conditions | electrical conductivity [S/m]
293.15 K | 0.000188 ± 3.8e-06
295.15 K | 0.000201 ± 4e-06
297.15 K | 0.000211 ± 4.2e-06
299.15 K | 0.000225 ± 4.5e-06
301.15 K | 0.000236 ± 4.7e-06
303.15 K | 0.000248 ± 5e-06
305.15 K | 0.000262 ± 5.2e-06
307.15 K | 0.000274 ± 5.5e-06
309.15 K | 0.000287 ± 5.7e-06
311.15 K | 0.0003 ± 6e-06
313.15 K | 0.000315 ± 6.3e-06
315.15 K | 0.000328 ± 6.6e-06
317.15 K | 0.000341 ± 6.8e-06
319.15 K | 0.000355 ± 7.1e-06
321.15 K | 0.000369 ± 7.4e-06
323.15 K | 0.000384 ± 7.7e-06
325.15 K | 0.000399 ± 8e-06
327.15 K | 0.000419 ± 8.4e-06
329.15 K | 0.000437 ± 8.7e-06
331.15 K | 0.000455 ± 9.1e-06
333.15 K | 0.000474 ± 9.5e-06
